Results reported in ChEMBL document CHEMBL4007445, “Design, synthesis, and biological evaluation of imidazo[1,2-b]pyridazine derivatives as mTOR inhibitors” (Eur J Med Chem, 2017).
pIC50: −log10 of the molar value.

What was measured:
[1] = system: A549; test: Antiproliferative activity against human A549 cells after 72 hrs by SRB assay; type: functional, cell-based; settings: A549, 72 h
[2] = system: A-375; test: Antiproliferative activity against human A375 cells after 72 hrs by SRB assay; type: functional, cell-based; settings: A-375, 72 h
[3] = system: MCF7; test: Antiproliferative activity against human MCF7 cells after 72 hrs by SRB assay; type: functional, cell-based; settings: MCF7, 72 h
[4] = Antiproliferative activity against human U87 cells after 72 hrs by SRB assay; type: functional, cell-based, U-87MG ATCC; settings: U-87 MG
[5] = system: NCI-H460; test: Antiproliferative activity against human NCI-H460 cells after 72 hrs by SRB assay; type: functional, cell-based; settings: NCI-H460, 72 h
[6] = system: HEK293; test: Antiproliferative activity against HEK293 cells after 72 hrs by SRB assay; type: cell-based; settings: Homo sapiens, HEK293, 72 h
[7] = Solubility of the compound; type: physicochemical
[8] = molecular target: PI3-kinase p110-alpha/p85-alpha (Homo sapiens) (UniProt P27986+P42336); test: Inhibition of human PI3K p110alpha/p85alpha at 10 uM using phosphatidylinositol 4,5-bisphosphate as substrate after 30 mins by HTRF assay relative to control; type: protein-complex assay
[9] = molecular target: PI3K p110 beta/p85 alpha (Homo sapiens) (UniProt P27986+P42338); test: Inhibition of human PI3K p110beta/p85alpha at 10 uM using phosphatidylinositol 4,5-bisphosphate as substrate after 30 mins by HTRF assay relative to control; type: protein-complex assay
[10] = molecular target: Phosphatidylinositol 4,5-bisphosphate 3-kinase catalytic subunit gamma isoform (Homo sapiens) (UniProt P48736); test: Inhibition of human PI3K p120gamma at 10 uM using phosphatidylinositol 4,5-bisphosphate as substrate after 30 mins by HTRF assay relative to control
[11] = molecular target: PI3-kinase p110-delta/p85-alpha (Homo sapiens) (UniProt P27986+O00329); test: Inhibition of human PI3K p110delta/p85alpha at 10 uM using phosphatidylinositol 4,5-bisphosphate as substrate after 30 mins by HTRF assay relative to control; type: protein-complex assay
[12] = molecular target: PI3-kinase p110-alpha/p85-alpha (Homo sapiens, UniProt P42336); test: Inhibition of human PI3K p110alpha/p85alpha using phosphatidylinositol 4,5-bisphosphate as substrate after 30 mins by HTRF assay; type: protein-complex assay
[13] = system: A549; test: Growth inhibition of human A549 cells at 20 uM after 72 hrs by SRB assay relative to control; type: functional; settings: A549, 72 h, read-out: GI
[14] = system: MCF7; test: Growth inhibition of human MCF7 cells at 20 uM after 72 hrs by SRB assay relative to control; type: functional; settings: MCF7, 72 h, read-out: GI
[15] = Growth inhibition of human U87 cells at 20 uM after 72 hrs by SRB assay relative to control; type: functional, U-87MG ATCC; settings: U-87 MG, read-out: GI
[16] = system: A-375; test: Growth inhibition of human A375 cells at 20 uM after 72 hrs by SRB assay relative to control; type: functional; settings: A-375, 72 h, read-out: GI
[17] = system: HeLa; test: Growth inhibition of human HeLa cells at 20 uM after 72 hrs by SRB assay relative to control; type: functional; settings: read-out: GI

Sequence of Phosphatidylinositol 4,5-bisphosphate 3-kinase catalytic subunit gamma isoform (Homo sapiens) (P48736 whole entry, looked up, canonical isoform): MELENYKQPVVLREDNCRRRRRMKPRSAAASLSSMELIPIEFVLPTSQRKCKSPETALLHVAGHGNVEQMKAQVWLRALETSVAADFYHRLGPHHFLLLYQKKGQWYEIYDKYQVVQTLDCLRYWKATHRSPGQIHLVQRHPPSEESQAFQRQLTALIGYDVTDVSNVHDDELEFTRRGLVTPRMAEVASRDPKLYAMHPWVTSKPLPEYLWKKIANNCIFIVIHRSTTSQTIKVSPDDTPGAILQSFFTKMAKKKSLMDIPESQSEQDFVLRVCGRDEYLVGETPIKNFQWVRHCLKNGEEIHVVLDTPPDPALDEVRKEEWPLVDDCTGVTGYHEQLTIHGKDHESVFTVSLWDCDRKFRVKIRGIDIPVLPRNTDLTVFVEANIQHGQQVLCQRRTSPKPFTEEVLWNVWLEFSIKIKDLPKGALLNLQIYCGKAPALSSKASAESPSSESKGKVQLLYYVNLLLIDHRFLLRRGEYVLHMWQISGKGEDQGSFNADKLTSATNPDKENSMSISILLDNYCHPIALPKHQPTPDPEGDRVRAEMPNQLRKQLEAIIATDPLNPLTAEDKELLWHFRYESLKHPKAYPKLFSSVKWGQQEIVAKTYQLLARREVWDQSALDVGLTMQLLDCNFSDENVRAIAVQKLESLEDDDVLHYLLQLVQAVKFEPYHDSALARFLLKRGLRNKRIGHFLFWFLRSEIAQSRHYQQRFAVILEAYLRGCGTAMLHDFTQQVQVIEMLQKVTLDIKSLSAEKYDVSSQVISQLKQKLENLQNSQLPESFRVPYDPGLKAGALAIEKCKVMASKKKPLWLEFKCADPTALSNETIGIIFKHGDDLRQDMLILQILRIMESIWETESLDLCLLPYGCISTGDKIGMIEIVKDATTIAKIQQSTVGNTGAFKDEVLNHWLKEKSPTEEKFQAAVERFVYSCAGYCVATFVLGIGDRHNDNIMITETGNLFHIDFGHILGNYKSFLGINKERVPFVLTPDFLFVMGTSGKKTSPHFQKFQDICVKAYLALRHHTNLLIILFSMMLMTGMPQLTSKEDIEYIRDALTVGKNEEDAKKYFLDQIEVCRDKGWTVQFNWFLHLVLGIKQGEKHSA
Sequence of PI3K p110 beta/p85 alpha (Homo sapiens) (P27986 2-724 limits assumed): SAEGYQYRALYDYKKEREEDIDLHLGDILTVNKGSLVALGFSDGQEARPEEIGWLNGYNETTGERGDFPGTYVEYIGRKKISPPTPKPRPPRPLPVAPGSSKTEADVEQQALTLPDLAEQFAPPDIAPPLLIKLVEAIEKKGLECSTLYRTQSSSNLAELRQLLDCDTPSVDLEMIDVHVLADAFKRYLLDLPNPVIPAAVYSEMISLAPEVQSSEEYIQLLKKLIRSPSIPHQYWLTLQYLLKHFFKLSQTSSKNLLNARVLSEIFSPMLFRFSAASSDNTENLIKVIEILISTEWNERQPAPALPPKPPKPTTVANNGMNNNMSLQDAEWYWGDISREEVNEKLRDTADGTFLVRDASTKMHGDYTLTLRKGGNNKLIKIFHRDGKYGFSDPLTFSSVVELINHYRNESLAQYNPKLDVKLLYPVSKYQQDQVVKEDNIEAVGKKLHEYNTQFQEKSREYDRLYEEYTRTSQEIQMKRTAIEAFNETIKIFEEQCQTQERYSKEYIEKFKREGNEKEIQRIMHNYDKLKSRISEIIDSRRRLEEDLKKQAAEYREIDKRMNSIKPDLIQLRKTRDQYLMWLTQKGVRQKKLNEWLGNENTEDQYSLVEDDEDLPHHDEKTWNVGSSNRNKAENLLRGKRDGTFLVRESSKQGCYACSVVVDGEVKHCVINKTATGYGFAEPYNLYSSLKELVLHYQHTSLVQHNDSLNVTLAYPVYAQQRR
Sequence of PI3K p110 beta/p85 alpha (Homo sapiens) (P42338 whole entry partner, canonical isoform): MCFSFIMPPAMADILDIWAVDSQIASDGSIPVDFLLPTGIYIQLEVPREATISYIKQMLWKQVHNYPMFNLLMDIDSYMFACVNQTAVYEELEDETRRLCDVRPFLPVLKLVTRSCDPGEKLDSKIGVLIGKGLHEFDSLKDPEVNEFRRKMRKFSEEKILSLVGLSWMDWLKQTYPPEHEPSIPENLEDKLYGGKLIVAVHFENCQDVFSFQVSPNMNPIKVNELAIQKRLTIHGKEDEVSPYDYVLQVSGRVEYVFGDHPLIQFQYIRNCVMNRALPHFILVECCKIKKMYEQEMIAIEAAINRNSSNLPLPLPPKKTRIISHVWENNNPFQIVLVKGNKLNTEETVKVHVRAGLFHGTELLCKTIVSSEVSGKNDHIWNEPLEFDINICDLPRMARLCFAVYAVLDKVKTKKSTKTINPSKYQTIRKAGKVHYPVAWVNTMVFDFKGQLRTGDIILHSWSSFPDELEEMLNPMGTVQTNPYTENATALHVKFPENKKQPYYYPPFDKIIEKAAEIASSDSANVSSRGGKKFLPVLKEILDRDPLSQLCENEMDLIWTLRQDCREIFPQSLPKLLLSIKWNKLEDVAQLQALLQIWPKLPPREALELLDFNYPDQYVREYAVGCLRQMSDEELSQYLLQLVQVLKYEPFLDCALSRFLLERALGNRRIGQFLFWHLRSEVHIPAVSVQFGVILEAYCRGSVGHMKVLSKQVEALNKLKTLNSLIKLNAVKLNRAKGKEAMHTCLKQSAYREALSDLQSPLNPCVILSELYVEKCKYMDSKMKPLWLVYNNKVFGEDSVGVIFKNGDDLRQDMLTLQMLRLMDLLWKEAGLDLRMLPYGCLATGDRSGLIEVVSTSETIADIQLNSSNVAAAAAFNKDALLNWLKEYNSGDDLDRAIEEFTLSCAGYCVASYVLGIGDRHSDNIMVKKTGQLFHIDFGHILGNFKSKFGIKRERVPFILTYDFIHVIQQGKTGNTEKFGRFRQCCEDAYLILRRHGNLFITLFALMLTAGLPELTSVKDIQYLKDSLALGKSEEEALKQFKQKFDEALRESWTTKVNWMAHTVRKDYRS
Sequence of PI3-kinase p110-alpha/p85-alpha (P27986 whole entry): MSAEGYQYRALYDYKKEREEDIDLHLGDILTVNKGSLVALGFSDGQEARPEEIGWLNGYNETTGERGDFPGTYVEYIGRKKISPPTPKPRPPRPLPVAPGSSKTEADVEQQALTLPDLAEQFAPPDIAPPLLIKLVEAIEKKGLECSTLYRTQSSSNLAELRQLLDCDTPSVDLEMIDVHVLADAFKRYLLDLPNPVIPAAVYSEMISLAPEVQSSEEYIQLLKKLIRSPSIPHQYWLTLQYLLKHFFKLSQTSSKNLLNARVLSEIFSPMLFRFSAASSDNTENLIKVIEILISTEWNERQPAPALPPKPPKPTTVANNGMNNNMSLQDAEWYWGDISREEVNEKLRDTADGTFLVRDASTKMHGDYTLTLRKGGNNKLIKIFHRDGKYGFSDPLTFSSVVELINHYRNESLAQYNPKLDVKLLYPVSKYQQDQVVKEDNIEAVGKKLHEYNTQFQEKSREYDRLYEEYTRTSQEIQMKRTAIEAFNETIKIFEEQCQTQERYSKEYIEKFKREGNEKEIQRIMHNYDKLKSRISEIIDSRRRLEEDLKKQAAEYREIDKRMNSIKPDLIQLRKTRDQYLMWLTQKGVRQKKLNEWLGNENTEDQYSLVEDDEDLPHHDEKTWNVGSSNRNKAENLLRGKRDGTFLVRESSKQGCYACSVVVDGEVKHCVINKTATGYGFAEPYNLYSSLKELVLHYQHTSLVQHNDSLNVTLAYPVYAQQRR
Sequence of PI3-kinase p110-alpha/p85-alpha (P42336 whole entry): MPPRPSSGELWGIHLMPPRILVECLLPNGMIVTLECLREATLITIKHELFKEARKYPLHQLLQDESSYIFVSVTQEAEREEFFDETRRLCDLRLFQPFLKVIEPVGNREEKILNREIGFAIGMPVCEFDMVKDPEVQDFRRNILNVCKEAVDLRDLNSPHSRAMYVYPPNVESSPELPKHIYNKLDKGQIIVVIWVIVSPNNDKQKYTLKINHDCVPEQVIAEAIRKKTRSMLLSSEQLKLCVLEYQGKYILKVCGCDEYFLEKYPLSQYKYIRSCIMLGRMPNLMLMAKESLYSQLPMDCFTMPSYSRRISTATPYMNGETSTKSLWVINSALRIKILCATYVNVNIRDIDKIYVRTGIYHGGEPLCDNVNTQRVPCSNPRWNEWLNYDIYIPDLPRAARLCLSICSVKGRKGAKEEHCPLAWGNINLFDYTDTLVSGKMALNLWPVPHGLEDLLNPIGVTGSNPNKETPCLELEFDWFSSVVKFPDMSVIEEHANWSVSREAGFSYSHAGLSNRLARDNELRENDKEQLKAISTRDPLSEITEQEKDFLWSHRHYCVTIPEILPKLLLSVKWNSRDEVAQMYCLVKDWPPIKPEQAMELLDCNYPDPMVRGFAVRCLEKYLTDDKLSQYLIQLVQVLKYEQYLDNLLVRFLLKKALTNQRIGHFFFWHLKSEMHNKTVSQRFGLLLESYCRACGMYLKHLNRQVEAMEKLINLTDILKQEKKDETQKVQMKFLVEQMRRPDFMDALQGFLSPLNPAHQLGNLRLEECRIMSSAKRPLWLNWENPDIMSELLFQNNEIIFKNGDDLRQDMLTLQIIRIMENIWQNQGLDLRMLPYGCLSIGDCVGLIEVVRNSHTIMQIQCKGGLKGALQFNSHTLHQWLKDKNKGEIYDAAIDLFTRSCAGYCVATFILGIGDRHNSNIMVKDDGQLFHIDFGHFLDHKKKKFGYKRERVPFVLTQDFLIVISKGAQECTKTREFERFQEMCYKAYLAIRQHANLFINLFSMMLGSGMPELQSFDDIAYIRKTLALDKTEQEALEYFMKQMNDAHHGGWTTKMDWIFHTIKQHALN

Structure (SMILES) | pIC50 [1] | pIC50 [2] | pIC50 [3] | pIC50 [5] | solubility [7] | inhibition [8] | inhibition [9] | inhibition [10] | inhibition [11] | pIC50 [12] | pIC50 [4] | pIC50 [6] | inhibition of growth at 20 µM [13] | inhibition of growth at 20 µM [14] | inhibition of growth at 20 µM [15] | inhibition of growth at 20 µM [16] | inhibition of growth at 20 µM [17]
CCc1cnc2c(N3CCOC[C@@H]3C)cc(-c3ccc(NC(=O)Nc4ccncc4)cc3)nn12 | 5.23 | 5.39 | 5.33 | 5.55 | Insoluble | – | – | – | – | – | 5.29 | 5.12 | – | – | – | – | –
COc1ccc(-c2ccc3c(N4CCOC[C@@H]4C)nc(N4CCOC[C@@H]4C)nc3n2)cc1CO [AZD-8055] | 7.30 | 6.92 | 6.85 | 8.00 | – | 70% | 12% | 29% | 59% | 5.25 | 6.72 | 5.85 | – | – | – | – | –
c1cncc(CN2CCC(c3cnc4c(N5CCOCC5)cc(-c5ccc6[nH]ccc6c5)nn34)CC2)c1 | 5.15 | 5.10 | 4.87 | – | – | – | – | – | – | – | 5.29 | – | 96.5% | 94.6% | 84.2% | 95.8% | 68.6%
COc1ccc(-c2cc(N3CCOC[C@@H]3C)c3ncc(C4CCN(Cc5cccnc5)CC4)n3n2)cc1CO | – | – | – | – | – | – | – | – | – | – | – | – | 65% | 37.9% | 11.7% | 15.2% | 50.3%
COc1ccc(-c2cc(N3CCOC[C@@H]3C)c3ncc(C4CCN(C(=O)c5cccnc5)CC4)n3n2)cc1CO | – | – | – | – | – | – | – | – | – | – | – | – | 46.8% | 42.1% | 4.3% | 19.6% | 17.8%
C[C@H]1COCCN1c1cc(-c2cnc(N)nc2)nn2c(C3CCN(C(=O)c4cccnc4)CC3)cnc12 | – | – | – | – | – | – | – | – | – | – | – | – | 42.1% | 32% | 11.7% | 17.8% | 9.4%
C[C@H]1COCCN1c1cc(-c2ccc3[nH]ccc3c2)nn2c(C3CCN(S(C)(=O)=O)CC3)cnc12 | – | – | – | – | – | – | – | – | – | – | – | – | 34% | 55.3% | 45.4% | 29.4% | 47.4%
C[C@H]1COCCN1c1cc(-c2cnc(N)nc2)nn2c(C3CCN(Cc4cccnc4)CC3)cnc12 | – | – | – | – | – | – | – | – | – | – | – | – | 44.8% | 34.2% | 10.8% | 14.7% | 30.5%
C[C@H]1COCCN1c1cc(-c2cccc(CO)c2)nn2c(C3CCN(S(C)(=O)=O)CC3)cnc12 | – | – | – | – | – | – | – | – | – | – | – | – | 48.1% | 36.1% | 4.5% | 11.6% | -2.3%
C[C@H]1COCCN1c1cc(-c2ccc3[nH]ccc3c2)nn2c(C3CCN(Cc4cccnc4)CC3)cnc12 | 5.11 | 5.47 | 5.20 | – | – | – | – | – | – | – | 5.10 | – | 84% | 96.5% | 84.4% | 96.7% | 73.6%
COc1ccc(-c2cc(N3CCOC[C@@H]3C)c3ncc(C4CCN(S(C)(=O)=O)CC4)n3n2)cc1CO | – | – | – | – | – | – | – | – | – | – | – | – | 49.6% | 45.1% | 4% | 21.2% | 12.7%
Oc1cccc(-c2nc(N3CCOCC3)c3oc4ncccc4c3n2)c1 | – | – | – | – | – | 101% | 99% | 98% | 96% | – | – | – | – | – | – | – | –
C[C@H]1COCCN1c1cc(-c2cnc(N)nc2)nn2c(C3CCN(S(C)(=O)=O)CC3)cnc12 | – | – | – | – | – | – | – | – | – | – | – | – | 39.5% | 24.3% | 1.5% | 17.5% | 4.4%
COC(=O)N1CCC(c2cnc3c(N4CCOC[C@@H]4C)cc(-c4ccc5[nH]ccc5c4)nn23)CC1 | – | – | – | – | – | – | – | – | – | – | – | – | 16% | 43.2% | 26.4% | 33.8% | 56%
C[C@H]1COCCN1c1cc(-c2ccc3[nH]ccc3c2)nn2c(C3CCN(C(=O)c4cccnc4)CC3)cnc12 | 4.94 | 5.39 | 5.00 | – | – | – | – | – | – | – | 5.00 | – | 57% | 75.6% | 58.3% | 96.7% | 34.2%
COC(=O)N1CCC(c2cnc3c(N4CCOC[C@@H]4C)cc(-c4cccc(CO)c4)nn23)CC1 | – | – | – | – | – | – | – | – | – | – | – | – | 40.4% | 34.6% | -5.2% | 16.3% | 0.2%
OCc1cccc(-c2cc(N3CCOCC3)c3ncc(C4CCN(Cc5cccnc5)CC4)n3n2)c1 | – | – | – | – | – | – | – | – | – | – | – | – | 30.2% | 46.2% | 7.8% | 12.5% | 19.4%

Continued, in another order:

pIC50 [1] | pIC50 [2] | pIC50 [3] | pIC50 [5] | solubility [7] | inhibition [8] | inhibition [9] | inhibition [10] | inhibition [11] | pIC50 [12] | Structure (SMILES) | pIC50 [4] | pIC50 [6] | inhibition of growth at 20 µM [13] | inhibition of growth at 20 µM [14] | inhibition of growth at 20 µM [15] | inhibition of growth at 20 µM [16] | inhibition of growth at 20 µM [17]
5.72 | < 4.40 | < 4.40 | < 4.40 | Insoluble | – | – | – | – | – | CCc1cnc2c(N3CCOCC3)cc(-c3ccc(NC(=O)Nc4cccnc4)cc3)nn12 | < 4.40 | < 4.40 | – | – | – | – | –
< 4.40 | < 4.40 | < 4.40 | < 4.40 | Insoluble | – | – | – | – | – | Cc1cnc2c(N3CCOCC3)cc(-c3ccc(NC(=O)Nc4ccncc4)cc3)nn12 | < 4.40 | < 4.40 | – | – | – | – | –
5.28 | 5.38 | 5.18 | 5.43 | Insoluble | – | – | – | – | – | CCc1cnc2c(N3CCOC[C@@H]3C)cc(-c3ccc(NC(=O)Nc4cccnc4)cc3)nn12 | 5.08 | 5.14 | – | – | – | – | –
5.55 | 5.14 | 4.66 | 4.68 | – | – | – | – | – | – | O=C(Nc1ccncc1)Nc1ccc(-c2cc(N3CCOCC3)c3nccn3n2)cc1 | 4.95 | 4.91 | – | – | – | – | –
5.51 | 5.74 | 5.54 | 5.54 | – | – | – | – | – | – | CN1CCN(c2ccc(NC(=O)Nc3ccc(-c4cc(N5CC6CCC(C5)O6)c5nccn5n4)cc3)cc2)CC1 | 5.37 | 4.92 | – | – | – | – | –
5.68 | 5.64 | < 4.40 | < 4.40 | Insoluble | – | – | – | – | – | Cc1cnc2c(N3CCOC[C@@H]3C)cc(-c3ccc(NC(=O)Nc4ccncc4)cc3)nn12 | < 4.40 | < 4.40 | – | – | – | – | –
5.30 | 5.19 | 4.79 | 5.17 | Insoluble | – | – | – | – | – | Cc1cnc2c(N3CCOCC3)cc(-c3ccc(NC(=O)Nc4cccnc4)cc3)nn12 | 4.89 | 4.94 | – | – | – | – | –
5.82 | 5.70 | 5.46 | 5.70 | – | – | – | – | – | – | C[C@H]1COCCN1c1cc(-c2ccc(NC(=O)Nc3ccc(N4CCN(C)CC4)cc3)cc2)nn2ccnc12 | 5.59 | 5.08 | – | – | – | – | –
5.64 | 4.96 | 5.20 | 5.66 | – | – | – | – | – | – | O=C(Nc1ccncc1)Nc1ccc(-c2cc(N3CC4CCC(C3)O4)c3nccn3n2)cc1 | 4.93 | 5.47 | – | – | – | – | –
5.96 | 5.33 | 4.42 | 6.19 | – | – | – | – | – | – | O=C(Nc1ccc(-c2cc(N3CC4CCC(C3)O4)c3nccn3n2)cc1)Nc1cccnc1 | 5.24 | 5.05 | – | – | – | – | –
5.57 | 5.11 | 5.24 | 5.38 | – | – | – | – | – | – | COc1ccc(NC(=O)Nc2ccc(-c3cc(N4CCOC[C@@H]4C)c4nccn4n3)cc2)cc1 | 5.10 | 4.98 | – | – | – | – | –
5.48 | 5.80 | 5.37 | 5.52 | – | – | – | – | – | – | CN1CCN(c2ccc(NC(=O)Nc3ccc(-c4cc(N5CCOCC5)c5nccn5n4)cc3)cc2)CC1 | 5.31 | 5.11 | – | – | – | – | –
6.66 | 4.80 | 4.75 | 6.00 | – | – | – | – | – | – | O=C(Nc1ccc(-c2cc(N3CCOCC3)c3nccn3n2)cc1)Nc1cccnc1 | 4.70 | 5.85 | – | – | – | – | –
5.92 | 5.48 | 5.11 | 5.14 | Insoluble | – | – | – | – | – | Cc1cnc2c(N3CCOC[C@@H]3C)cc(-c3ccc(NC(=O)Nc4cccnc4)cc3)nn12 | 4.97 | 5.09 | – | – | – | – | –
